# Laboratory results from paper PMC6959841, “Kinetic Optimization of Lysine-Targeting Covalent Inhibitors of HSP72” (Journal of Medicinal Chemistry, 2019).
# “Also recorded” adds a separate entry of the source.
# Legend:
# [1] = test system: HSP72; conditions: read-out: KM for ATP; cited from earlier work
# [2] = biological target: T1, HSP72-NBD (Homo sapiens, UniProt P0DMV8); assay: HSP72-NBD nucleotide-derived FP-assay (probe displacement, App. Ki, time-dependent); format: binding
# [3] = biological target: T1, HSP72-NBD; assay: Covalent (kinetic) FP-assay; format: binding
# [4] = biological target: T1, HSP72-NBD; conditions: even at high concentrations; cited from earlier work
# [5] = biological target: T1, HSP72-NBD; assay: Intact-protein mass spectrometry of covalent adduct formation; format: binding; conditions: 20 μM compound, 2.0 μM HSP72-NBD, 21 °C
# T1 sequence (P0DMV8 2-386 limits assumed): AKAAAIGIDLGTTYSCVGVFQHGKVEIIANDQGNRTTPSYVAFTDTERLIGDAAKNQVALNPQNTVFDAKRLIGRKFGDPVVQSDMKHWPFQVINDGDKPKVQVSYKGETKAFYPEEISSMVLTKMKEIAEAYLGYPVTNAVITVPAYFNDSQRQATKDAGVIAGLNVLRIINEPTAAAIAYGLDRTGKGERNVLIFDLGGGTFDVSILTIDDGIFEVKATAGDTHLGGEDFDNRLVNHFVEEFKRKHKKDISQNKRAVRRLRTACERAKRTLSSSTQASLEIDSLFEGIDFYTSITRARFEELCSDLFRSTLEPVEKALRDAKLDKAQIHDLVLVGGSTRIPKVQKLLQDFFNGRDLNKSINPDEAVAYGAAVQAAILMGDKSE
structure (smiles),measurement,setting,value
Nc1ncnc2c1ncn2[C@@H]1O[C@H](COP(=O)(O)OP(=O)(O)OP(=O)(O)O)[C@@H](O)[C@H]1O [ATP],Km,[1],~1 µM
"C=CC(=O)OCCC[C@H]1O[C@@H](n2c(NCc3ccc(Cl)cc3)nc3c(N)ncnc32)[C@H](O)[C@@H]1O [Compound 2, 3-((2R,3S,4R,5R)-5-(6-amino-8-((4-chlorobenzyl)amino)-9H-purin-9-yl)-3,4-dihydroxytetrahydrofuran-2-yl)propyl acrylate]",Ki,[2]; Time 19 h,7.2 µM
same,Ki,[2]; Time 46 h,3.7 µM
same,Ki,[2]; Time […] (printed 0.08 3),17 µM
same,kinact,"[3]; from kinact/KI and initial Ki, assuming KI = Ki",1.6e-05 s⁻¹
same,t1/2^inf,[3]; ln 2/kinact,12 h
same,exposure required for complete formation of the covalent complex by intact-protein MS,[4],> 24 h
"Nc1ncnc2c1nc(NCc1ccc(Cl)cc1)n2[C@@H]1O[C@H](COCc2ccc(C(=O)Oc3ccc(F)cc3)cc2)[C@@H](O)[C@H]1O [Compound 8, 4-fluorophenyl 4-((((2R,3S,4R,5R)-5-(6-amino-8-((4-chlorobenzyl)amino)-9H-purin-9-yl)-3,4-dihydroxytetrahydrofuran-2-yl)methoxy)methyl)benzoate]",covalent-bond formation by intact-protein MS,[5],no evidence of specific and selective covalent-bond formation
"CC1(C)O[C@@H]2[C@H](O1)[C@@H](COC(=O)c1ccc(S(=O)(=O)F)cc1)O[C@H]2n1c(NCc2ccc(Cl)cc2)nc2c(N)ncnc21 [Compound 13, ((3aR,4R,6R,6aR)-6-(6-amino-8-((4-chlorobenzyl)amino)-9H-purin-9-yl)-2,2-dimethyltetrahydrofuro[3,4-d][1,3]dioxol-4-yl)methyl 4-(fluorosulfonyl)benzoate]",reversible binding affinity,[2],no reversible binding affinity
same,time dependence of App. Ki / probe displacement curve,[2]; WT HSP72-NBD,no time-dependent displacement
same,covalent-bond formation by intact-protein MS,[5],no reaction; also recorded: no reactivity
"N#Cc1ccc(C(=O)OC[C@H]2O[C@@H](n3c(NCc4ccc(Cl)cc4)nc4c(N)ncnc43)[C@H](O)[C@@H]2O)cc1 [Compound 15, ((2R,3S,4R,5R)-5-(6-amino-8-((4-chlorobenzyl)amino)-9H-purin-9-yl)-3,4-dihydroxytetrahydrofuran-2-yl)methyl 4-cyanobenzoate]",fold weaker/less potent than tight-binding reversible MMP 9,[2],> 18 fold
"Nc1ncnc2c1ncn2[C@@H]1O[C@H](COC(=O)c2ccc(S(=O)(=O)F)cc2)[C@@H](O)[C@H]1O [Compound 16, ((2R,3S,4R,5R)-5-(6-amino-9H-purin-9-yl)-3,4-dihydroxytetrahydrofuran-2-yl)methyl 4-(fluorosulfonyl)benzoate]",fold weaker activity / decrease in covalent efficiency vs TCI 14,[3],70 fold
